Assay results reported in patent US6455284B1, “Metabolically engineered E. coli for enhanced production of oxaloacetate-derived biochemicals” (The University of Georgia Research Foundation, Inc., priority 1998, dated 2002).

Experiments:
[1] = target: R. etli pyruvate carboxylase (Rhizobium etli, UniProt Q2K340); assay: Pyruvate carboxylase (PC) coupled enzyme assay (Payne and Morris) with E. coli cell extracts; format: biochemical; details: for effect of nicotinamide nucleotides on pyruvate carboxylase activity: cell-free crude extract from MG1655 pTrc99A-pyc, FIG. 9
Method: Pyruvate carboxylase (PC) enzyme assay. For pyruvate carboxylase activity measurements, 100 mL of mid-log phase culture was harvested by centrifugation at 7,000×g for 15 minutes at 4° C. and washed with 10 mL of 100 mM Tris-Cl (pH 8.0). The cells were then resuspended in 4 mL of 100 mM Tris-Cl (pH 8.0) and subsequently subjected to cell disruption by sonication. The cell debris was removed by centrifugation at 20,000×g for 15 minutes at 4° C. The pyruvate carboxylase activity was measured by the method of Payne and Morris (J. Gen. Microbiol., 59, 97-101 (1969)). In this assay the oxaloacetate produced by pyruvate carboxylase is converted to citrate by the addition of citrate synthase in the presence of acetyl CoA and 5,5-dithio-bis(2-nitro-benzoate) (DTNB) (Aldrich Chemical Co.); the homotetramer pyruvate carboxylase enzyme from R. etli requires acetyl coenzyme A for activation. The rate of increase in absorbence at 412 nm due to the presence of CoA-dependent formation of the 5-thio-2-nitrobenzoate was monitored, first after the addition of pyruvate and then after the addition of ATP. The difference between these two rates was taken as the ATP-dependent pyruvate carboxylase activity. The concentration of reaction components per milliliter of mixture was as follows: 100 mM Tris-Cl (pH 8.0), 5 mM MgCl2.H2O, 50 mM Na HCO3, 0.1 mM acetyl CoA, 0.25 mM DTNB, and 5 units (U) of citrate synthase. Pyruvate, ATP, ADP, or aspartate, were added as specified in the Results section, below. The reaction was started by adding 50 μl of cell extract. One unit of pyruvate carboxylase activity corresponds to the formation of 1 μmol of 5-thio-2-nitrobenzoate per mg of protein per minute. All enzyme assays were performed in triplicate and a standard error of less then 10% was observed. The total protein in the cell extracts was determined by the Lowry method (O. Lowry et al., J. Biol. Chem., 193, 265-275 (1951)).
R. etli pyruvate carboxylase can convert pyruvate to oxaloacetate in E. coli. To confirm that the expressed pyruvate carboxylase protein was enzymatically active in E. coli, the coupled enzyme assay developed by Payne and Morris was employed to assess pyruvate carboxylase activity (J. Payne et al., J. Gen. Microbiol., 59, 97-101 (1969)). Cell extracts containing the induced pUC18-pyc construct (MG1655 pUC18-pyc) were tested for pyruvate carboxylase activity using varying amounts of pyruvate, and compared to controls containing the pUC18 construct (MG1655 pUC18). ATP was added at a final concentration of 5 mM to the reaction mixture and pyruvate carboxylase activity was determined in the presence of increasing amounts of pyruvate. […] This value is in excellent agreement with other pyruvate carboxylase enzymes that have been studied (H. Feir et al., Can. J. Biochem., 47, 698-710 (1969); H. Modak et al., Microbiol., 141, 2619-2628 (1995); M. Scrutton et al., Arch. Biochem. Biophys., 164, 641-654 (1974)).
It is well documented that the α4 pyruvate carboxylase enzymes can be inhibited by either aspartate or adenosine diphosphate (ADP). Aspartate is the first amino acid that is synthesized from oxaloacetate and ADP is liberated when pyruvate carboxylase converts pyruvate to oxaloacetate. Pyruvate carboxylase activity in the presence of each of these inhibitors was evaluated using extracts of MG1655 cells that contained the pUC18-pyc construct. The effect of aspartate was analyzed by adding ATP and pyruvate to the reaction mixture to final concentrations of 5 mM and 6 mM, respectively, then determining pyruvate carboxylase activity in the presence of increasing amounts of aspartate. […] As expected, the pyruvate carboxylase activity was inhibited by aspartate and the specific activity decreased to approximately 43% in the presence of 8 mM aspartate. The effect of ADP was analyzed by adding pyruvate to the reaction mixture to a final concentration of 5 mM, then determining pyruvate carboxylase activity in the presence of increasing amounts of […]. […]

[2] = test system: biotinylated R. etli pyruvate carboxylase expressed in E. coli; assay: Western blot of in vivo biotinylated pyruvate carboxylase in MG1655 pUC18-pyc cells grown with varying biotin; format: cell-based; details: M9 media, 37° C., mid-log
Method: Protein gels and Western blotting. Heat-denatured cell extracts were separated on 10% SDS-PAGE gels as per Altman et. al. (J. Bact., 155, 1130-1137 (1983)) and Western blots were carried out as per Carroll and Gherardini (Infect. Immun., 64, 392-398 (1996)). ALS225 E. coli cells containing either pUC18 or pUC18-pyc were grown to mid-log in rich media at 37° C. both in the presence and absence of IPTG. Because ALS225 contains lacIq1 on the F′, significant induction of the pUC18-pyc construct should not occur unless IPTG is added. Protein extracts were prepared, subjected to SDS PAGE, and Western blotted. Proteins which had been biotinylated in vivo were then detected using the Sigma-Blot protein detection kit (Sigma Chemical Corp., St. Louis, Mo.). The instructions of the manufacturer were followed except that during the development of the western blots the protein biotinylation step was omitted, thus allowing for the detection of only those proteins which had been biotinylated in vivo.
Effects of biotin and biotin holoenzyme synthase on the expression of biotinylated R. etli pyruvate carboxylase in E. coli. […] Proteins which had been biotinylated in vivo were then detected using the Sigma-Blot protein detection kit, as described above. […] The amount of biotinylated pyruvate carboxylase that was present in each sample was quantitated using a Stratagene Eagle Eye II Still Video. […]

[3] = substrate: CC(=O)C(=O)O; assay: Pyruvate carboxylase (PC) coupled enzyme assay (Payne and Morris) with E. coli cell extracts; format: biochemical, R. etli; details: other: MG1655 pUC18-pyc extract; ATP 5 mM; Lineweaver-Burke plot; pH 8.0
Method: Pyruvate carboxylase (PC) enzyme assay. For pyruvate carboxylase activity measurements, 100 mL of mid-log phase culture was harvested by centrifugation at 7,000×g for 15 minutes at 4° C. and washed with 10 mL of 100 mM Tris-Cl (pH 8.0). The cells were then resuspended in 4 mL of 100 mM Tris-Cl (pH 8.0) and subsequently subjected to cell disruption by sonication. The cell debris was removed by centrifugation at 20,000×g for 15 minutes at 4° C. The pyruvate carboxylase activity was measured by the method of Payne and Morris (J. Gen. Microbiol., 59, 97-101 (1969)). […] The rate of increase in absorbence at 412 nm due to the presence of CoA-dependent formation of the 5-thio-2-nitrobenzoate was monitored, first after the addition of pyruvate and then after the addition of ATP. […] The total protein in the cell extracts was determined by the Lowry method (O. Lowry et al., J. Biol. Chem., 193, 265-275 (1951)).
R. etli pyruvate carboxylase can convert pyruvate to oxaloacetate in E. coli. […] ATP was added at a final concentration of 5 mM to the reaction mixture and pyruvate carboxylase activity was determined in the presence of increasing amounts of pyruvate. […]

## Nc1ncnc2c1ncn2[C@@H]1O[C@H](COP(=O)(O)OP(=O)(O)O)[C@@H](O)[C@H]1O [ADP, adenosine diphosphate]
[1]
  Ki: 142 µM
[1]; MG1655 pUC18-pyc extract, pyruvate 5 mM, increasing ATP
  mode of inhibition of pyruvate carboxylase: competitive inhibitor of ATP

## Nc1ncnc2c1ncn2[C@@H]1O[C@H](COP(=O)(O)OP(=O)(O)OP(=O)(O)O)[C@@H](O)[C@H]1O [ATP]
[1]; MG1655 pUC18-pyc extract, pyruvate 5 mM, Lineweaver-Burke plot, read-out: saturation constant (Km) for expressed pyruvate carboxylase with respect to ATP
  Km: 193 µM

## NC(=O)c1ccc[n+]([C@@H]2O[C@H](COP(=O)([O-])OP(=O)(O)OC[C@H]3O[C@@H](n4cnc5c(N)ncnc54)[C@H](O)[C@@H]3O)[C@@H](O)[C@H]2O)c1 [NAD+]
[1]
  effect of nicotinamide nucleotides on pyruvate carboxylase activity: did not

## NC(=O)C1=CN([C@@H]2O[C@H](COP(=O)(O)OP(=O)(O)OC[C@H]3O[C@@H](n4cnc5c(N)ncnc54)[C@H](O)[C@@H]3O)[C@@H](O)[C@H]2O)C=CC1 [NADH, reduced nicotinamide adenine dinucleotide]
[1]
  effect of nicotinamide nucleotides on pyruvate carboxylase activity: inhibited pyruvate carboxylase

## NC(=O)c1ccc[n+]([C@@H]2O[C@H](COP(=O)([O-])OP(=O)(O)OC[C@H]3O[C@@H](n4cnc5c(N)ncnc54)[C@H](OP(=O)(O)O)[C@@H]3O)[C@@H](O)[C@H]2O)c1 [NADP+]
[1]
  effect of nicotinamide nucleotides on pyruvate carboxylase activity: did not

## NC(=O)C1=CN([C@@H]2O[C@H](COP(=O)(O)OP(=O)(O)OC[C@H]3O[C@@H](n4cnc5c(N)ncnc54)[C@H](OP(=O)(O)O)[C@@H]3O)[C@@H](O)[C@H]2O)C=CC1 [NADPH]
[1]
  effect of nicotinamide nucleotides on pyruvate carboxylase activity: did not

## N[C@@H](CC(=O)O)C(=O)O [aspartate]
[1]; read-out: pyruvate carboxylase specific activity remaining
  remaining activity at 8000 µM: ~43%

## O=C(O)CCCC[C@@H]1SC[C@@H]2NC(=O)N[C@@H]21 [biotin]
[2]
  biotin concentration sufficient to biotinylate all of the expressed pyruvate carboxylase: 50 ng/mL

B1: R. etli pyruvate carboxylase (Rhizobium etli CFN 42) (protein)
chain: MPISKILVANRSEIAIRVFRAANELGIKTVAIWAEEDKLALHRFKADESYQVGRGPHLARDLGPIESYLSIDEVIRVAKLSGADAIHPGYGLLSESPEFVDACNKAGIIFIGPKADTMRQLGNKVAARNLAISVGVPVVPATEPLPDDMAEVAKMAAAIGYPVMLKASWGGGGRGMRVIRSEADLAKEVTEAKREAMAAFGKDEVYLEKLVERARHVESQILGDTHGNVVHLFERDCSVQRRNQKVVERAPAPYLSEAQRQELAAYSLKIAGATNYIGAGTVEYLMDADTGKFYFIEVNPRIQVEHTVTEVVTGIDIVKAQIHILDGAAIGTPQSGVPNQEDIRLNGHALQCRVTTEDPEHNFIPDYGRITAYRSASGFGIRLDGGTSYSGAIITRYYDPLLVKVTAWAPNPLEAISRMDRALREFRIRGVATNLTFLEAIIGHPKFRDNSYTTRFIDTTPELFQQVKRQDRATKLLTYLADVTVNGHPEAKDRPKPLENAARPVVPYANGNGVKDGTKQLLDTLGPKKFGEWMRNEKRVLLTDTTMRDGHQSLLATRMRTYDIARIAGTYSHALPNLLSLECWGGATFDVSMRFLTEDPWERLALIREGAPNLLLQMLLRGANGVGYTNYPDNVVKYFVRQAAKGGIDLFRVFDCLNWVENMRVSMDAIAEENKLCEAAICYTGDILNSARPKYDLKYYTNLAVELEKAGAHIIAVKDMAGLLKPAAAKVLFKALREATGLPIHFHTHDTSGIAAATVLAAVEAGVDAVDAAMDALSGNTSQPCLGSIVEALSGSERDPGLDPAWIRRISFYWEAVRNQYAAFESDLKGPASEVYLHEMPGGQFTNLKEQARSLGLETRWHQVAQAYADANQMFGDIVKVTPSSKVVGDMALMMVSQDLTVADVVSPDREVSFPESVVSMLKGDLGQPPSGWPEALQKKALKGEKPYTVRPGSLLKEADLDAERKVIEKKLEREVSDFEFASYLMYPKVFTDFALASDTYGPVSVLPTPAYFYGLADGEELFADIEKGKTLVIVNQAVSATDSQGMVTVFFELNGQPRRIKVPDRAHGATGAAVRRKAEPGNAAHVGAPMPGVISRVFVSSGQAVNAGDVLVSIEAMKMETAIHAEKDGTIAEVLVKAGDQIDAKDLLAVYGG
[3]
  Km: 249 µM
